Measurements taken from ChEMBL document CHEMBL1201862, “PubChem BioAssay data set” (2004).
Calls of active or inactive are those of the source.

What was measured:
[1] = system: Streptococcus sp. 'group A'; assay: growth inhibition of control SK(-) GAS strain, dose response, counter-screen for streptokinase expression inhibitor project, luminescence, kanamycin, BacTiterGlo, confirmation (AID 1900); assay type: functional, organism-based
[2] = A Cell Based Secondary Assay To Explore Cytotoxicity of Compounds that Sensitize Mycobacterium Tuberculosis to Beta-Lactam Antibiotics.; assay type: functional
Streptococcus = assay: Group A Streptococcus viability loss, dose response, counter-screen for streptokinase expression inhibitor project, luminescence, BacTiterGlo (AID 1915); assay type: functional, organism-based;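 also: potency for reduction of bacterial viability or growth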
Tumor necrosis factor = Tumor necrosis factor (Homo sapiens, UniProt P01375); assay: TNFa-triggered NF-kB activation inhibitors, SAR follow-up, cell-based, revised (AID 2337); assay type: functional
[3] = THP-1 cell cytotoxicity, dose response, cytotoxicity control for non-replicating M. tuberculosis project (AID 489025); assay type: functional
[4] = molecular target: T1, Nucleotide-binding oligomerization domain-containing protein 1 (Homo sapiens, UniProt Q9Y239); assay: NOD1 signaling inhibitors, SAR follow-up, revised (AID 2333); assay type: functional
T1 sequence (Q9Y239 whole entry): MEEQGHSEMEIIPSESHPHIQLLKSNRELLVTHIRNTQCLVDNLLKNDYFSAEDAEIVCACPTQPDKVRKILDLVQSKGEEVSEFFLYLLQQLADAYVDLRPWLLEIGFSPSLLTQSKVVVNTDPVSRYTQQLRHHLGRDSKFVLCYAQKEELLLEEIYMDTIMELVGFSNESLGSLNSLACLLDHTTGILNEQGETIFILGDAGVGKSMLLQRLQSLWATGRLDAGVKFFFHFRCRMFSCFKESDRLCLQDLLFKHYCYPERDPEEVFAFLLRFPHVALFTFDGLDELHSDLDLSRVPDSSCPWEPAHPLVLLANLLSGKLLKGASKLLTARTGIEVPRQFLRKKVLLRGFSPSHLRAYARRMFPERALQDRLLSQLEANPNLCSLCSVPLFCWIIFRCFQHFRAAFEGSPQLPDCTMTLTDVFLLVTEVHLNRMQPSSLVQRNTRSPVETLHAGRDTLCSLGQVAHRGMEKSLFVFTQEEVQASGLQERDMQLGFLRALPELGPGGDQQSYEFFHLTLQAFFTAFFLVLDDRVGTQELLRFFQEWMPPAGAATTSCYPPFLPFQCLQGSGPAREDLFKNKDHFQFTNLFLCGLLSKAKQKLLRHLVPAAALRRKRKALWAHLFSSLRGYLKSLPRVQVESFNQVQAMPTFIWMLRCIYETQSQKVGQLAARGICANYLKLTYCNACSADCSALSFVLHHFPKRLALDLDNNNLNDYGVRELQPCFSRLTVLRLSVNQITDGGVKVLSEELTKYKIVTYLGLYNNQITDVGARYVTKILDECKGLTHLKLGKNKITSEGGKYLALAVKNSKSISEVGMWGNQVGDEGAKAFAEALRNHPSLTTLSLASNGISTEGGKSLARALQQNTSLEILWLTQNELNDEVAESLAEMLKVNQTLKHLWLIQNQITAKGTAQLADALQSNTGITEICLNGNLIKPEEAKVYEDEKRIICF

[5] = HepG2 cell cytotoxicity, dose response, cytotoxicity control for non-replicating M. tuberculosis project (AID 489018); assay type: functional; settings: Mycobacterium tuberculosis
[6] = Vero E6 cell cytotoxicity, dose response, cytotoxicity control for non-replicating M. tuberculosis project, secondary assay (AID 492998); assay type: functional, VeroE6; settings: Vero C1008
[7] = molecular target: T2, Microphthalmia-associated transcription factor (Homo sapiens, UniProt O75030); assay: TRPM1 promoter luciferase signal decrease, dose response, MITF inhibitor project, cell-based, SK-MEL-5, cherry-picked, set 3 (AID 493073); assay type: functional
T2 sequence (O75030 whole entry): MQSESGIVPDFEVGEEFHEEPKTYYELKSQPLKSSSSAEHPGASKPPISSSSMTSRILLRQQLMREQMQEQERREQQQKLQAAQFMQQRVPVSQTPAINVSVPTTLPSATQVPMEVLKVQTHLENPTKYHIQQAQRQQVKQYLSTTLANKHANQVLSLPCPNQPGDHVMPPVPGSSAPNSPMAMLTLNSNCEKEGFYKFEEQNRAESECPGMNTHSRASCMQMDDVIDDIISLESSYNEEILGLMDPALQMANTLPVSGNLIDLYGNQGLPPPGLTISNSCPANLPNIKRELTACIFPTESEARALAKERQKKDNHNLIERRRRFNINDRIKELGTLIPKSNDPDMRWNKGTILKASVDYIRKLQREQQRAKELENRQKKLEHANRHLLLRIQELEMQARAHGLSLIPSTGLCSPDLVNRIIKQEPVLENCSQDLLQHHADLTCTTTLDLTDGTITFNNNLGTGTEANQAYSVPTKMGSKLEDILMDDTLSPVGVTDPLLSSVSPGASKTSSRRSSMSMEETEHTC

cells = assay type: functional
[8] = Shn3 3'UTR reporter inhibitors, dose response, cell-based, Clone20 osteoblasts, firefly luciferase, cherry-picked (AID 624132); assay type: functional;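 also: firefly luciferase luminescence from reporter carrying the Shn3 3'UTR in osteoblasts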
[9] = HepG2 cell cytotoxicity, dose response, cytotoxicity control for Shn3 inhibitor project, CellTiter-Glo, cherry-picked (AID 624134); assay type: functional, cell-based
[10] = control 3'UTR Renilla luciferase suppression, dose response, counter-screen for Shn3 inhibitor project, cell-based, Clone20-Shn3RL, cherry-picked (AID 624133); assay type: functional
HEK293 = assay: cells; settings: Homo sapiens
[11] = molecular target: T3, Mannose-6-phosphate isomerase (Homo sapiens, UniProt P34949); assay: PMI enzyme inhibitors, confirmation, biochemical, fluorescence intensity (AID 1535)
T3 sequence (P34949 whole entry): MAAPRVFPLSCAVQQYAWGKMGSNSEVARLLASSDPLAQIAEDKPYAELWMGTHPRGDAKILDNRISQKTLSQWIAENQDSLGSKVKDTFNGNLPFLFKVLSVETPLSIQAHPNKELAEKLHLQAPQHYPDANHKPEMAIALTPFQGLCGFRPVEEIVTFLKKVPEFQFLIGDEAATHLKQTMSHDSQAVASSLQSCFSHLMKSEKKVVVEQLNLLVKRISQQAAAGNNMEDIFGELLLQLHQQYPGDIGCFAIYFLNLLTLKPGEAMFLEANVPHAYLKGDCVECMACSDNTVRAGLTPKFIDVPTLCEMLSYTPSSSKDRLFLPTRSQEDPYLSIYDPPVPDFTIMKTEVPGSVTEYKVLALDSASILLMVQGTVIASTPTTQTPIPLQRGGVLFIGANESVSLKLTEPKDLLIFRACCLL

Phosphomannomutase 2 = Phosphomannomutase 2 (Homo sapiens, UniProt O15305); assay: Counter screen SAR assay for PMM2 inhibitors via a fluorescence intensity assay. [Related pubchem assays (depositor defined):AID1545, AID1574]
Cytochrome P450 2D6 = Cytochrome P450 2D6 (Homo sapiens, UniProt P10635);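 also: CYP2D6 member of a cytochrome P450 panel assay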
[12] = molecular target: T4, Voltage-gated N-type calcium channel alpha-1B subunit/Amyloid beta A4 precursor protein-binding family A member 1 (Homo sapiens, UniProt Q00975+Q02410); assay type: protein assay
[13] = molecular target: T4, Voltage-gated N-type calcium channel alpha-1B subunit/Amyloid beta A4 precursor protein-binding family A member 1; assay type: protein assay; remark: listed apart in the source
[14] = molecular target: Induced myeloid leukemia cell differentiation protein Mcl-1 (Homo sapiens, UniProt Q07820); assay type: functional
SUMO E1/E2 = SUMO E1/E2 (Homo sapiens, UniProt P63279+Q9UBE0+Q9UBT2); assay: SAR analysis of SUMOylation using HTRF in an in-Vitro dose response assay. [Related pubchem assays (depositor defined):AID2006, AID2011, AID2018, AID2069, AID2658]; assay type: functional
[15] = molecular target: Eukaryotic translation initiation factor 4E (Mus musculus, UniProt P63073); assay: eIF4E–eIF4G protein interaction inhibitors, dose response, biochemical, TR-FRET (AID 855); assay type: functional;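 also: potency for disrupting eIF4E binding to eIF4GI seen as loss of FRET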
[16] = molecular target: T4, Voltage-gated N-type calcium channel alpha-1B subunit/Amyloid beta A4 precursor protein-binding family A member 1; assay: disruptors of Mint-PDZ/N-type channel peptide interaction – biochemical, HTRF, set 2, SAR follow-up (AID 434980); assay type: functional
[17] = molecular target: T4, Voltage-gated N-type calcium channel alpha-1B subunit/Amyloid beta A4 precursor protein-binding family A member 1; assay: disruptors of Mint-PDZ/N-type channel peptide interaction – biochemical, HTRF, SAR follow-up (AID 2489); assay type: functional
Kallikrein-7 = Kallikrein-7 (Homo sapiens, UniProt P49862); assay: Fluorescence Intensity-based biochemical primary high throughput dose response assay to identify activators of kallikrein-7 (K7) zymogen.
Sequence of Kallikrein-7 (P49862 whole entry): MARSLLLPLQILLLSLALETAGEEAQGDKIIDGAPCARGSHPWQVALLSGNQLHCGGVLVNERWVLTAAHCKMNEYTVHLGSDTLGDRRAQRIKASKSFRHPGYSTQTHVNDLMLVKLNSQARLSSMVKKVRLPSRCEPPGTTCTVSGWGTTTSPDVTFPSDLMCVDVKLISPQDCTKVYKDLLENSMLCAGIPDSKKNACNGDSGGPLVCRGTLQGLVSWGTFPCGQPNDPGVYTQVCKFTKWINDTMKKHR

T4 sequence (Q00975 whole entry): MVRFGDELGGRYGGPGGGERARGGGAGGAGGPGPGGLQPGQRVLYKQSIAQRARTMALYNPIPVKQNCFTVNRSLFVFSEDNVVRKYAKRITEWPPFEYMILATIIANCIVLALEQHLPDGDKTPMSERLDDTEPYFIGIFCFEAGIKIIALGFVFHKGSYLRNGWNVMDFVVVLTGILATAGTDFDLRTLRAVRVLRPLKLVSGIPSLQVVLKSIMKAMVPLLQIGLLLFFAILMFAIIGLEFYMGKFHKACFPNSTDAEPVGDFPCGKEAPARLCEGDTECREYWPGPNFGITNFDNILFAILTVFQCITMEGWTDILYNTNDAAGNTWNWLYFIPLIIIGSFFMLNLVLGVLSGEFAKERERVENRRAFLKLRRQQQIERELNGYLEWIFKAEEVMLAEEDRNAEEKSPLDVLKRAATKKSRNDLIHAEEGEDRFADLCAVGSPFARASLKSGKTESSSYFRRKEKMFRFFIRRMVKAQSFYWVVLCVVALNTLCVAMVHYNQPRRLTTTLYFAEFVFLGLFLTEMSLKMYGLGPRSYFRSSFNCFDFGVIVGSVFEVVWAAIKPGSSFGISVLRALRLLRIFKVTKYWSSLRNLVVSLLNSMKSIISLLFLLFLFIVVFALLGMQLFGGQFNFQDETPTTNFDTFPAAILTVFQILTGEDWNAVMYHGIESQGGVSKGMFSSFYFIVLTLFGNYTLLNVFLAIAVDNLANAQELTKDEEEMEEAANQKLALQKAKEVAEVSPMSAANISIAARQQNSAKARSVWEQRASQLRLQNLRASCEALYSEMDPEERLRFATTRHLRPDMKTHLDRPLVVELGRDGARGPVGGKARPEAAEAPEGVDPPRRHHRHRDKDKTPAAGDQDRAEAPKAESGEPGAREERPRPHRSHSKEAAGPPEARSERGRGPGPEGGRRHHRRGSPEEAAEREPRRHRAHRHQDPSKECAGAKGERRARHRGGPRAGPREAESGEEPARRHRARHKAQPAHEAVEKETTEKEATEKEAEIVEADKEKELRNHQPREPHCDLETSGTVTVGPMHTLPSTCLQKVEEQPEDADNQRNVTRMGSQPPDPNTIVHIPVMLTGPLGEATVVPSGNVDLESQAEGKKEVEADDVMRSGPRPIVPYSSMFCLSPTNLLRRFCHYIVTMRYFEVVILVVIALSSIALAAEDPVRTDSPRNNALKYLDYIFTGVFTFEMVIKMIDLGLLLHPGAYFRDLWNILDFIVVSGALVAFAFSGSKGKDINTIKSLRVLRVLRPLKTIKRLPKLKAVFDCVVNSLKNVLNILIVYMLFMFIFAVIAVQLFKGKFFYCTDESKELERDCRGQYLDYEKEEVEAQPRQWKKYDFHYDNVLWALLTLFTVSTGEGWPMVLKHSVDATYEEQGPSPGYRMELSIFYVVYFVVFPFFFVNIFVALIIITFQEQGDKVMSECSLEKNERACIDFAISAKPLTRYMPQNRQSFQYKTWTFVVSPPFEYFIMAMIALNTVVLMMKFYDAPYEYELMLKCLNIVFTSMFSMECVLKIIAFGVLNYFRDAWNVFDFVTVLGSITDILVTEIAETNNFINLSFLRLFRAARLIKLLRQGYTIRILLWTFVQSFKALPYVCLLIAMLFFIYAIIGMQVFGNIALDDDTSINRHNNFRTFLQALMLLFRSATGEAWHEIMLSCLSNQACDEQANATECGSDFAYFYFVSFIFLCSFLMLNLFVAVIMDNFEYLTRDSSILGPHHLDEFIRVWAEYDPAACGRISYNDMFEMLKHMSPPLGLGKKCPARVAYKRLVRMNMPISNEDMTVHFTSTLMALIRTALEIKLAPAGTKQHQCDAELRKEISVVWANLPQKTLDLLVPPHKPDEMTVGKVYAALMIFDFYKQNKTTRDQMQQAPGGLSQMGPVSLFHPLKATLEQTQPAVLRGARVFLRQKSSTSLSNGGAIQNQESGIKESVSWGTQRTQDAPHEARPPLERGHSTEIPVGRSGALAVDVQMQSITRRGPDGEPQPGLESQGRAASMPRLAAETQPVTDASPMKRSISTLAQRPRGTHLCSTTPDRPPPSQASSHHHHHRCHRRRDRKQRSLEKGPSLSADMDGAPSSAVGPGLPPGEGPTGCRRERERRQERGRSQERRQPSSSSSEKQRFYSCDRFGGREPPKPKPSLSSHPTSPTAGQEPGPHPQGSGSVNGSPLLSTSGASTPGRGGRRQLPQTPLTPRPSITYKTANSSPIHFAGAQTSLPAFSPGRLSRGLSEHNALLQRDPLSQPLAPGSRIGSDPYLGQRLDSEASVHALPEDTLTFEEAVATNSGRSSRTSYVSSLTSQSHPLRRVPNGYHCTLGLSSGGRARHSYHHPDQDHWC
T4 sequence (Q02410 whole entry): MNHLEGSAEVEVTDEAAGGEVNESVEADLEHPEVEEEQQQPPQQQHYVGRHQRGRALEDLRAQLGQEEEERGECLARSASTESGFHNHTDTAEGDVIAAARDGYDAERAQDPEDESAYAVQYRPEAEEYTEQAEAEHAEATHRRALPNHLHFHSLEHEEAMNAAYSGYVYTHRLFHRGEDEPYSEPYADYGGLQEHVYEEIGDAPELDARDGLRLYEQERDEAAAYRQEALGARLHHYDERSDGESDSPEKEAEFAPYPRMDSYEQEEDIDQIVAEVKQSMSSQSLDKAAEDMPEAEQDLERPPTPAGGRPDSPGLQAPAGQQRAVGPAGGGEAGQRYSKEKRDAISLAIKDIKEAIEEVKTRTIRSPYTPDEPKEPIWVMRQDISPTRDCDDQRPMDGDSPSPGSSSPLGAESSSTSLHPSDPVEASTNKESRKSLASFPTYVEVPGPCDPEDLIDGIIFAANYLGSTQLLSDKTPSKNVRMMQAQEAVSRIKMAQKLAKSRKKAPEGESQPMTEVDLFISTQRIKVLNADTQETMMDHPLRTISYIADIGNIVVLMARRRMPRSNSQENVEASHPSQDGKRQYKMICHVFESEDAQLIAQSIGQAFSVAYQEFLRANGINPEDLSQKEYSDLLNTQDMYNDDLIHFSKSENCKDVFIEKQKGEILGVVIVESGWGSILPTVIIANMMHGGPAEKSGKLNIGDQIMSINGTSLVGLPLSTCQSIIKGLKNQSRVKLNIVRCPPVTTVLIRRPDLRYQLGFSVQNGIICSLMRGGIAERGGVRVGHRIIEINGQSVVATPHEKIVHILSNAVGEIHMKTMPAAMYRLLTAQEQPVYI
Sequence of Eukaryotic translation initiation factor 4E (P63073 whole entry): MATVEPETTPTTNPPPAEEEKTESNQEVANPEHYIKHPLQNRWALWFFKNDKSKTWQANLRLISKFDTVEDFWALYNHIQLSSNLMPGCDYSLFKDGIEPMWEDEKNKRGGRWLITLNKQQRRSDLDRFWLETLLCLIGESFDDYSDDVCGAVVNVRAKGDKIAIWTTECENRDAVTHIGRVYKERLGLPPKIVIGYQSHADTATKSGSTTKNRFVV
Sequence of Cytochrome P450 2D6 (P10635 whole entry): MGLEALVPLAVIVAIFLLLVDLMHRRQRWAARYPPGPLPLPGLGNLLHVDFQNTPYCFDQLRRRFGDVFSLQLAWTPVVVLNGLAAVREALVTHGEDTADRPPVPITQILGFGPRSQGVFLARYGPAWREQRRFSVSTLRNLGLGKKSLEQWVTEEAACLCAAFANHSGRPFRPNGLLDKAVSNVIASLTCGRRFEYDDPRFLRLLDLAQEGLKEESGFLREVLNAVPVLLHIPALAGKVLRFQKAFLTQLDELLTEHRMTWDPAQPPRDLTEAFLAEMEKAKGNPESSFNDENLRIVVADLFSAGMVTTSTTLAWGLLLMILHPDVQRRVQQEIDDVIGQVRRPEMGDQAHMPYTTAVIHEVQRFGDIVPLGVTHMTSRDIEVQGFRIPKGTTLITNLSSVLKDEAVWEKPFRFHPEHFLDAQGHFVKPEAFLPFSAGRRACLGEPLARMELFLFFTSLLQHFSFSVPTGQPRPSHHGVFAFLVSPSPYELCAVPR
Sequence of Phosphomannomutase 2 (O15305 whole entry): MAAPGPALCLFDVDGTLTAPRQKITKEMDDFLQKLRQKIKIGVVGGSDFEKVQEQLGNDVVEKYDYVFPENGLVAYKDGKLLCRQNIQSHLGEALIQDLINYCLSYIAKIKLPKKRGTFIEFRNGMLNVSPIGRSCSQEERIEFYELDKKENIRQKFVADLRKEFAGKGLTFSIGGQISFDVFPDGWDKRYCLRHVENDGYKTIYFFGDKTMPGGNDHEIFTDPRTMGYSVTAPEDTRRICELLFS
Sequence of Induced myeloid leukemia cell differentiation protein Mcl-1 (Q07820 whole entry): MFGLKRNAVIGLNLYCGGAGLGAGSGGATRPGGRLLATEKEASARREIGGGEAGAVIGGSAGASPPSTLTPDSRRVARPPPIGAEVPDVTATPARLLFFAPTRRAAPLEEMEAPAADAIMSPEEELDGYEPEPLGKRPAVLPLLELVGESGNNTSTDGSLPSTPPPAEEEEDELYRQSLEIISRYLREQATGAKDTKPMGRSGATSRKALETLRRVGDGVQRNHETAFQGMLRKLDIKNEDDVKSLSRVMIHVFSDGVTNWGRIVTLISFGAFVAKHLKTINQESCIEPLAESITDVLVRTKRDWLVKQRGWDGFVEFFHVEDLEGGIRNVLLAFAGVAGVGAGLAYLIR
Sequence of Tumor necrosis factor (P01375 whole entry): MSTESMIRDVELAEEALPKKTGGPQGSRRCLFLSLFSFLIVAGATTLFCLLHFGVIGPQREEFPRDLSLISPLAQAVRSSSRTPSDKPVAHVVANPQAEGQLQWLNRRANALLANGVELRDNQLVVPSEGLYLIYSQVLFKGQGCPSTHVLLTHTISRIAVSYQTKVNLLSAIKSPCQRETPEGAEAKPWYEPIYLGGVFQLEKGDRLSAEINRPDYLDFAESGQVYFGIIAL

## CCCCCn1c(=O)c(C(=O)Nc2cnccn2)c(O)c2ccccc21
[1]
  EC50: 3.24 µM (active)
[2]
  CC50: 2.4 µM (active)
Streptococcus
  EC50: 5.32 µM (active)
Tumor necrosis factor
  IC50: > 20 µM (inactive)
[3]
  CC50: 5.17 µM (active)
[4]
  IC50: 11.3 µM (active)
[5]
  CC50: 13.5 µM (active)
[6]
  CC50: 4.02 µM (active)
[7]
  AC50: 5.93 µM (active)
cells
  IC50: 3.04 µM (active)
[8]
  AC50: 1.54 µM (active)
[9]
  AC50: > 70 µM (inactive)
[10]
  AC50: 3.1 µM (active)
HEK293
  IC50: > 20 µM (inactive)

## Cc1cc2n(n1)SC(Nc1ccccc1)N2 (stereo not given)
[11]
  IC50: > 50 µM (inactive)
Phosphomannomutase 2
  IC50: > 100 µM (inactive)

## N/C(CC/C(N)=N/O)=N\O
Cytochrome P450 2D6
  AC50: inconclusive

## CCN(CC)C(=O)COC(=O)c1cc(-c2ccco2)nc2ccccc12
[12]
  IC50: 12.7 µM (active)
[13]
  IC50: 4.92 µM (active)
[14]
  IC50: 3.26 µM (active)
SUMO E1/E2
  IC50: 2.71 µM (active)
[15]
  IC50: 50 µM (inactive)
[16]
  IC50: 19.2 µM (active)
[17]
  IC50: 13.9 µM (active)
Kallikrein-7
  EC50: 23 µM (inactive)
